The values that follow come from patent US7629355B2 (priority 2003, dated 2009).

Counter-ions that a name gives are not always drawn. Like-named read-outs stand apart in the source and are kept apart here. Bounds are passed on as bounds.

Data set [1] can be described thus: induced Straub tail method (antagonist activity). Particulars: for Antagonism (μmol/kg) Straub Tail: in vivo.
In another data set the target is opiate receptor. The data set is described as follows: opiate receptor assay of Pert et al. The format is binding. An excerpt: (Raven Press, New York, N.Y.), at pp. 33-43. […] Int. Pharmacodyn.
Data set [2] in a line: reversal of morphine-induced analgesia in the tail flick assay. Particulars: reversal of analgesia induced by morphine. (In general: Thermal pain tests record how soon the animal reacts.)
Data set [3] addresses T1, μ receptor (Homo sapiens, UniProt P35372). The experiment in a line: biochemical. The format is biochemical.
The target in data set [4] is T2, δ receptor (Homo sapiens, UniProt P41143).
T2 construct: expressed in transfected cells; host or cells: CHO cells
T2 sequence (P41143 whole entry): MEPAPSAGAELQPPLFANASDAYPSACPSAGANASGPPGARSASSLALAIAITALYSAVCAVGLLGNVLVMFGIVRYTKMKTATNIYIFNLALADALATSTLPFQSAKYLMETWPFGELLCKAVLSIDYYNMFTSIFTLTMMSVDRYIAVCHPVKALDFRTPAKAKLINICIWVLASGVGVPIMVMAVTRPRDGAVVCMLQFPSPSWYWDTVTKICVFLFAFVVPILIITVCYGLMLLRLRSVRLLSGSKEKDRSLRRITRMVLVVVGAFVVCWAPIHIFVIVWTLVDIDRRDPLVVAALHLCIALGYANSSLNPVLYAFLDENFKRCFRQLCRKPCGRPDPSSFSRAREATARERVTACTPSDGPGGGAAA
The experiment in a line: biochemical. The format is biochemical.

For data set [5], the target named is T3, κ receptor (Homo sapiens, UniProt P41145).
T3 construct: expressed in transfected cells; host or cells: CHO cells
T3 sequence (P41145 whole entry): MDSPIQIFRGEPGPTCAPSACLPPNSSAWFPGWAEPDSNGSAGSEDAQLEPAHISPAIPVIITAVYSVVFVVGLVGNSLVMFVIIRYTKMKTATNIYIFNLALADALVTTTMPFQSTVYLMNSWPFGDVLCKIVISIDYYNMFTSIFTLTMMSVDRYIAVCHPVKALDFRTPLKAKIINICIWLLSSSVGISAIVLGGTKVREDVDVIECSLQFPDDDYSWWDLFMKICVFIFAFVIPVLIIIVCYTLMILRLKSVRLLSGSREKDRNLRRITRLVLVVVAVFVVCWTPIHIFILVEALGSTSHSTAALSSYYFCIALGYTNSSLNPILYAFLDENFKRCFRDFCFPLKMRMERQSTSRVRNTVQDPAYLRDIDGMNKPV
The data set is described as follows: biochemical. The format is biochemical.

Data set [6] addresses T3, κ receptor. The experiment in a line: biochemical. The format is binding.
The conditions of data set [7]: in animals; cited from earlier work.
Data set [8] concerns the target T1, μ receptor. The data set is described as follows: biochemical. The format is binding.
The target in data set [9] is T2, δ receptor. The experiment in a line: biochemical. The format is binding.
In data set [10] the target is T1, μ receptor. The data set is described as follows: pA2 analysis of antagonist activity against DAMGO dose response curve. The format is biochemical.
A short description of data set [11]: mouse jump test (physical dependence). The format is in vivo. Particulars: 30 min after 100 mg/kg naloxone on day 4; test compound ip days 1-3. How it is done:
Antagonist activity, considered a measure of nonaddictiveness, was measured by the opiate receptor assay of Pert et al. (1974) Mol. Pharmacol. 10:868. Antagonist activity was also measured using the induced Straub tail method as described by DeGraw et al. (1978) J. Med Chem. 21:415, and Blumberg et al. (1973) Advances in Chemical Psychopharmacology, Vol. 8, M. Braudy et al. eds. (Raven Press, New York, N.Y.), at pp. 33-43. A direct and simple assay measuring physical dependence is the mouse jump test described by Saelens et al. (1971) Arch. Int. Pharmacodyn. 190:213.
Physical dependence, a more direct measure of non-addictive properties than antagonist activity, was evaluated using the mouse jump test. Mice were injected intraperitoneally 5 times on day 1 with increasing doses of test compound ranging from 8-100 mg/kg body weight. On days 2 and 3 the mice were given 100 mg/kg 4 times. On day 4 all mice received 100 mg/kg of the antagonist naloxone in a single dose. The mice were then caged for 30 min, and a record was made of the number jumping during this time.

[12] abbreviates: +NaCl, read-out: Opiate Receptor Inhibition (IC50, nM) +NaCl.
The mark [13] stands for this setting: −NaCl, read-out: Opiate Receptor Inhibition (IC50, nM) −NaCl.

T1 sequence (P35372 whole entry): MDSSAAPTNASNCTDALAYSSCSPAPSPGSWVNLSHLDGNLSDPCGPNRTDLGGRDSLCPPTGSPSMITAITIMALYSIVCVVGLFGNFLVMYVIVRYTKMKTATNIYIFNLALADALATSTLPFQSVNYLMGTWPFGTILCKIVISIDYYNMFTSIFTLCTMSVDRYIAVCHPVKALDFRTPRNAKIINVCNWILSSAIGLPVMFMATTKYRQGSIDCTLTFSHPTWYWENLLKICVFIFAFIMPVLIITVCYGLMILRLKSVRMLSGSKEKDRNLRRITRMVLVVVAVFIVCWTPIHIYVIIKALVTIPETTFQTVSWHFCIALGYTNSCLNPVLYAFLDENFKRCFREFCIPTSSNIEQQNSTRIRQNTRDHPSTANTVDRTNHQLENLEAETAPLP

`CC(C1CC1)N1CCC23c4c5ccc(O)c4OC2C(O)C=CC3C1C5` (mixture of isomers) (as salt: salt) [N-α-methylcyclopropylmethyl-normorphine (mixture)] [N-[(1R,S)-1-Cyclopropylethyl]-Normorphine] gave a melting point of 248 to 250 °C.

As to `CC(C1CC1)N1CCC23c4c5ccc(O)c4OC2C(O)C=CC3C1C5` (mixture of isomers) [N-α-methylcyclopropylmethyl-normorphine (mixture)] [N-[(1R,S)-1-Cyclopropylethyl]-Normorphine], in [1] (Straub tail method), the “antagonist potency relative to nalorphine” value is listed as “about one-fourth”. The “Antagonism (μmol/kg) Straub Tail” value in data set [1] came to 4.5 µmol/kg. The IC50 turned out to be 6 nM at opiate receptor (setting [12]) and 3 nM at opiate receptor (setting [13]).

In the case of `CC(C1CC1)N1CCC23c4c5ccc(O)c4OC2C(O)C=CC3C1C5` (single isomer, unassigned; diastereomer b) [N-α-methylcyclopropylmethyl-normorphine (S isomer), N-methylcyclopropylmethyl-normorphine (diastereomer B)], the melting point was 209 to 210 °C. Besides, in [2], the “Antagonism (μmol/kg) Tail Flick” value is greater than 213 µmol/kg. On opiate receptor (setting [13]), the IC50 is 0.23 nM.

On to `C[C@H]1[C@H]2Cc3ccc(O)cc3[C@]1(C)CCN2CC1CC1` [Cyclazocine, reference compound], for which, on μ receptor [3], the “μ % Stim” value is recorded as 33 ± 18%. At δ receptor [4], the EC50 stood at 2.9 ± 1.9 nM and the “δ % Stim” value is listed as 82 ± 9%. For the same compound, at κ receptor [5], it took 0.8 ± 0.2 nM to reach a half-maximal effect (EC50) and the “κ % Stim” value was 80%.

In the case of `C[C@@H](NC(=O)[C@@H](N)Cc1ccc(O)cc1)C(=O)NCC(=O)N(C)[C@@H](Cc1ccccc1)C(=O)NCCO` [DAMGO, [D-Ala^2, NMePhe^4, Gly^5-ol]-enkephalin], the “κ % Stim” value on κ receptor [5] was found to be 62%.

Regarding `CCC(C)N1CCC23c4c5ccc(O)c4OC2C(O)C=CC3C1C5` [N-sec-butyl normorphine (R), reference compound], the “Antagonism (μmol/kg) Straub Tail” value in data set [1] came to 16.2 µmol/kg. Moreover, the results for the half-inhibitory concentration (IC50) at opiate receptor (setting [12]) and on opiate receptor (setting [13]) were 110 nM and 60 nM, respectively.

Take `CCC(C)N1CCC23c4c5ccc(O)c4OC2C(O)C=CC3C1C5` [N-sec-butyl normorphine (S), reference compound]: the “Antagonism (μmol/kg) Straub Tail” value in [1] is 7.4 µmol/kg. The results for the IC50 at opiate receptor (setting [12]) and on opiate receptor (setting [13]) were 62 nM and 28 nM, respectively.

Turning to `C[C@H](C1CC1)N1CC[C@]23c4c5ccc(O)c4O[C@H]2[C@@H](O)C=C[C@H]3[C@H]1C5` [compound 1, N-[(1R)-1-cyclopropylethyl]-normorphine], at μ receptor [3], the concentration for a half-maximal effect (EC50) was greater than 10000 nM and the “functional character at the μ receptor” value is “pure antagonist”. The “Antagonism (μmol/kg) Tail Flick” value in data set [2] is greater than 213 µmol/kg. The compound further came in with an inhibition constant (Ki) on κ receptor [6] of 0.43 ± 0.11 nM. For the same compound, at δ receptor [4], a half-maximal effect (EC50) was put at 39.6 ± 6.3 nM, the “functional character at δ” value is reported as “partial agonist” and the “δ % Stim” value turned out to be 22 ± 6%. In [7], the respiratory depression result is reported as “free of respiratory depression” and the therapeutic index result is “high therapeutic index”. For the same compound, at μ receptor [8], the affinity, expressed as Ki, was 0.35 ± 0.06 nM. Besides, at κ receptor [5], a half-maximal response (EC50) required 15.2 ± 2.5 nM, the “functional character at κ” value is on record as “partial agonist” and the “κ % Stim” value was found to be 63 ± 1%. For the same compound, in the data set on opiate receptor (relative to N-sec-butyl-normorphine), the “affinity in the opiate assay relative to N-sec-butyl-normorphine” value is listed as “about 122 times”. In the data set with opiate receptor (relative to morphine), the “affinity in the opiate assay relative to morphine” value was “over 43 times”. For the same compound, at opiate receptor (setting [13]), the concentration for half-maximal inhibition (IC50) turned out to be 7 nM. This compound also registered a Ki at δ receptor [9] of 3.97 ± 0.98 nM. The compound also registered an antagonist equilibrium constant (Kb) at μ receptor [10] of 1.43 ± 0.16 nM. Also, at μ receptor [10] (n=6), the Slope is −1.04 and the pA2 turned out to be 8.84±0.06.

Turning to `CN1CC[C@]23c4c5ccc(O)c4O[C@H]2[C@@H](O)C=C[C@H]3[C@H]1C5` [morphine], in [1], the “Antagonism (μmol/kg) Straub Tail” value came out at 1 µmol/kg. In [2], the “Antagonism (μmol/kg) Tail Flick” value is 2 µmol/kg. In data set [11], the “number of mice jumping” value is reported as 10/10.

As to `C=CCN1CC[C@]23c4c5ccc(O)c4O[C@H]2[C@@H](O)C=C[C@H]3[C@H]1C5` [nalorphine, reference compound], the “Antagonism (μmol/kg) Tail Flick” value in [2] was 2.04 µmol/kg. Further, the half-maximal inhibitory concentration (IC50) was 6 nM at opiate receptor (setting [12]) and 2 nM at opiate receptor (setting [13]).

Turning to (−)SKF 10,047, the “κ % Stim” value at κ receptor [5] is given as 49 ± 13%. For the same compound, at κ receptor [5] (read-out: κ EC50), the EC50 turned out to be 5.38 ± 2.3 nM.

“[D-Pen^2,D-Pen^5]-enkephalin [DPDPE, reference compound]”: on κ receptor [5], the “κ % Stim” value is reported as 77%.

One may read the melting point as the temperature, or range, at which the solid turns liquid. By IC50 is commonly meant the concentration at which inhibition is half-maximal. In general, EC50 refers to the concentration at which the effect is half-maximal. One may read the Ki as the dissociation constant of the complex between target and ligand, obtained from inhibition or displacement. The low end stands for higher affinity, the high end for lower affinity. Usually Kb stands for the affinity of an antagonist, worked out from how it opposes an agonist. A high value points to a less potent antagonist. One may read the pA2 as the negative logarithm of the molar antagonist concentration that doubles the agonist concentration needed for the same response. A lower pA2 goes with lower antagonist potency.
